Laboratory results from patent US20260027116A1, “Methods of Treating Chronic Graft-Versus-Host Disease Following Allogeneic Hematopoietic Stem Cell Transplantation” (Kadmon Corporation, LLC, priority 2022, published 2026).

System: patients with cGVHD

**Q.** Which results are given for `CC(C)NC(=O)COc1cccc(-c2nc(Nc3ccc4[nH]ncc4c3)c3ccccc3n2)c1` [Belumosudil, 2-{3-[4-(1H-indazol-5-ylamino)-2-quinazolinyl]phenoxy}-N-(propan-2-yl) acetamide]?
**A.** Urinary retention: Affected/At Risk (%) (Cohort 2 200 mg BID): 1/16 (6.25%); Urinary tract infection: # Events (Cohort 2 200 mg BID): 2; Urinary tract infection: Affected/At Risk (%) (Cohort 2 200 mg BID): 2/16 (12.5%); Urinary tract pain: # Events (Cohort 2 200 mg BID): 1; Urinary tract pain: Affected/At Risk (%) (Cohort 2 200 mg BID): 1/16 (6.25%); Urine output decreased: # Events (Cohort 2 200 mg BID): 1; Urine output decreased: Affected/At Risk (%) (Cohort 2 200 mg BID): 1/16 (6.25%); Vascular access complication: # Events (Cohort 2 200 mg BID): 1; Vascular access complication: Affected/At Risk (%) (Cohort 2 200 mg BID): 1/16 (6.25%); Vertigo: # Events (Cohort 2 200 mg BID): 0; Vertigo: Affected/At Risk (%) (Cohort 2 200 mg BID): 0/16 (0%); Vision blurred: # Events (Cohort 2 200 mg BID): 2; Vision blurred: Affected/At Risk (%) (Cohort 2 200 mg BID): 2/16 (12.5%); Vomiting: # Events (Cohort 2 200 mg BID): 3; Vomiting: Affected/At Risk (%) (Cohort 2 200 mg BID): 3/16 (18.75%); Weight decreased: # Events (Cohort 2 200 mg BID): 0; Weight decreased: Affected/At Risk (%) (Cohort 2 200 mg BID): 0/16 (0%); Weight increased: # Events (Cohort 2 200 mg BID): 2; Weight increased: Affected/At Risk (%) (Cohort 2 200 mg BID): 1/16 (6.25%); White blood cell count decreased: # Events (Cohort 2 200 mg BID): 0; White blood cell count decreased: Affected/At Risk (%) (Cohort 2 200 mg BID): 0/16 (0%); Abdominal distension: # Events (Cohort 3 400 mg QD): 1; Abdominal distension: Affected/At Risk (%) (Cohort 3 400 mg QD): 1/21 (4.76%); Abdominal pain upper: # Events (Cohort 3 400 mg QD): 0; Abdominal pain upper: Affected/At Risk (%) (Cohort 3 400 mg QD): 0/21 (0%); Abdominal pain: # Events (Cohort 3 400 mg QD): 6; Abdominal pain: Affected/At Risk (%) (Cohort 3 400 mg QD): 4/21 (19.05%); Actinic keratosis: # Events (Cohort 3 400 mg QD): 1; Actinic keratosis: Affected/At Risk (%) (Cohort 3 400 mg QD): 1/21 (4.76%); Acute kidney injury: # Events (Cohort 3 400 mg QD): 6; Acute kidney injury: Affected/At Risk (%) (Cohort 3 400 mg QD): 2/21 (9.52%); Acute respiratory distress syndrome: # Events (Cohort 3 400 mg QD): 0; Acute respiratory distress syndrome: Affected/At Risk (%) (Cohort 3 400 mg QD): 0/21 (0%); Adrenal insufficiency: # Events (Cohort 3 400 mg QD): 0; Adrenal insufficiency: Affected/At Risk (%) (Cohort 3 400 mg QD): 0/21 (0%); Alanine aminotransferase increased: # Events (Cohort 3 400 mg QD): 2; Alanine aminotransferase increased: Affected/At Risk (%) (Cohort 3 400 mg QD): 2/21 (9.52%); All grade ALT/AST increased, No. (%) (Cohort 3 400 mg QD): 2 (10); All grade Cough, No. (%) (Cohort 3 400 mg QD): 7 (33); All grade Diarrhea, No. (%) (Cohort 3 400 mg QD): 7 (33); All grade Dyspnea, No. (%) (Cohort 3 400 mg QD): 7 (33); All grade Fatigue, No. (%) (Cohort 3 400 mg QD): 9 (43); All grade Headache, No. (%) (Cohort 3 400 mg QD): 6 (29); All grade Hypertension, No. (%) (Cohort 3 400 mg QD): 4 (19); All grade Nausea, No. (%) (Cohort 3 400 mg QD): 8 (38); All grade Peripheral edema, No. (%) (Cohort 3 400 mg QD): 6 (29); All grade URI, No. (%) (Cohort 3 400 mg QD): 7 (33); All-Cause Mortality, % (Cohort 3 400 mg QD): (14.29%); All-Cause Mortality, Affected/At Risk (Cohort 3 400 mg QD): 3/21; Anaemia: # Events (Cohort 3 400 mg QD): 0; Anaemia: Affected/At Risk (%) (Cohort 3 400 mg QD): 0/21 (0%); Anal incontinence: # Events (Cohort 3 400 mg QD): 0; Anal incontinence: Affected/At Risk (%) (Cohort 3 400 mg QD): 0/21 (0%); Anxiety: # Events (Cohort 3 400 mg QD): 3; Anxiety: Affected/At Risk (%) (Cohort 3 400 mg QD): 3/21 (14.29%); Any AE, No. (%) (Cohort 3 400 mg QD): 16 (100); Arthralgia: # Events (Cohort 3 400 mg QD): 6; Arthralgia: Affected/At Risk (%) (Cohort 3 400 mg QD): 5/21 (23.81%); Aspartate aminotransferase increased: # Events (Cohort 3 400 mg QD): 1; Aspartate aminotransferase increased: Affected/At Risk (%) (Cohort 3 400 mg QD): 1/21 (4.76%); Asthenia: # Events (Cohort 3 400 mg QD): 0; Asthenia: Affected/At Risk (%) (Cohort 3 400 mg QD): 0/21 (0%); Atelectasis: # Events (Cohort 3 400 mg QD): 0; Atelectasis: Affected/At Risk (%) (Cohort 3 400 mg QD): 0/21 (0%); Back pain: # Events (Cohort 3 400 mg QD): 1; Back pain: Affected/At Risk (%) (Cohort 3 400 mg QD): 1/21 (4.76%); Balance disorder: # Events (Cohort 3 400 mg QD): 0; Balance disorder: Affected/At Risk (%) (Cohort 3 400 mg QD): 0/21 (0%); Basal cell carcinoma: # Events (Cohort 3 400 mg QD): 0; Basal cell carcinoma: Affected/At Risk (%) (Cohort 3 400 mg QD): 0/21 (0%); Benign prostatic hyperplasia: # Events (Cohort 3 400 mg QD): 0; Benign prostatic hyperplasia: Affected/At Risk (%) (Cohort 3 400 mg QD): 0/21 (0%); Blepharitis: # Events (Cohort 3 400 mg QD): 2; Blepharitis: Affected/At Risk (%) (Cohort 3 400 mg QD): 1/21 (4.76%); Blister: # Events (Cohort 3 400 mg QD): 1; Blister: Affected/At Risk (%) (Cohort 3 400 mg QD): 1/21 (4.76%); Blood alkaline phosphatase increased: # Events (Cohort 3 400 mg QD): 0; Blood alkaline phosphatase increased: Affected/At Risk (%) (Cohort 3 400 mg QD): 0/21 (0%); Blood chloride decreased: # Events (Cohort 3 400 mg QD): 0; Blood chloride decreased: Affected/At Risk (%) (Cohort 3 400 mg QD): 0/21 (0%); Blood cholesterol increased: # Events (Cohort 3 400 mg QD): 1; Blood cholesterol increased: Affected/At Risk (%) (Cohort 3 400 mg QD): 1/21 (4.76%); Blood creatine increased: # Events (Cohort 3 400 mg QD): 0; Blood creatine increased: Affected/At Risk (%) (Cohort 3 400 mg QD): 0/21 (0%); Blood creatine phosphokinase increased: # Events (Cohort 3 400 mg QD): 0; Blood creatine phosphokinase increased: Affected/At Risk (%) (Cohort 3 400 mg QD): 0/21 (0%); Blood creatinine increased: # Events (Cohort 3 400 mg QD): 2; Blood creatinine increased: Affected/At Risk (%) (Cohort 3 400 mg QD): 2/21 (9.52%); Blood loss anaemia: # Events (Cohort 3 400 mg QD): 0; Blood loss anaemia: Affected/At Risk (%) (Cohort 3 400 mg QD): 0/21 (0%); Bronchial secretion retention: # Events (Cohort 3 400 mg QD): 0; Bronchial secretion retention: Affected/At Risk (%) (Cohort 3 400 mg QD): 0/21 (0%); Bronchitis: # Events (Cohort 3 400 mg QD): 1; Bronchitis: Affected/At Risk (%) (Cohort 3 400 mg QD): 1/21 (4.76%); Bronchoscopy: # Events (Cohort 3 400 mg QD): 0; Bronchoscopy: Affected/At Risk (%) (Cohort 3 400 mg QD): 0/21 (0%); Catheter site haemorrhage: # Events (Cohort 3 400 mg QD): 0; Catheter site haemorrhage: Affected/At Risk (%) (Cohort 3 400 mg QD): 0/21 (0%); Chills: # Events (Cohort 3 400 mg QD): 0; Chills: Affected/At Risk (%) (Cohort 3 400 mg QD): 0/21 (0%); Chronic kidney disease: # Events (Cohort 3 400 mg QD): 0; Chronic kidney disease: Affected/At Risk (%) (Cohort 3 400 mg QD): 0/21 (0%); Conjunctival haemorrhage: # Events (Cohort 3 400 mg QD): 1; Conjunctival haemorrhage: Affected/At Risk (%) (Cohort 3 400 mg QD): 1/21 (4.76%); Conjunctivitis: # Events (Cohort 3 400 mg QD): 3; Conjunctivitis: Affected/At Risk (%) (Cohort 3 400 mg QD): 3/21 (14.29%); Constipation: # Events (Cohort 3 400 mg QD): 4; Constipation: Affected/At Risk (%) (Cohort 3 400 mg QD): 3/21 (14.29%); Contrast media allergy: # Events (Cohort 3 400 mg QD): 0; Contrast media allergy: Affected/At Risk (%) (Cohort 3 400 mg QD): 0/21 (0%); Contusion: # Events (Cohort 3 400 mg QD): 4; Contusion: Affected/At Risk (%) (Cohort 3 400 mg QD): 3/21 (14.29%); Corneal abrasion: # Events (Cohort 3 400 mg QD): 0; Corneal abrasion: Affected/At Risk (%) (Cohort 3 400 mg QD): 0/21 (0%); Corneal infection: # Events (Cohort 3 400 mg QD): 0; Corneal infection: Affected/At Risk (%) (Cohort 3 400 mg QD): 0/21 (0%); Cough: # Events (Cohort 3 400 mg QD): 9; Cough: Affected/At Risk (%) (Cohort 3 400 mg QD): 7/21 (33.33%); Death, No. (%) (Cohort 3 400 mg QD): 2 (10); Decreased appetite: # Events (Cohort 3 400 mg QD): 4; Decreased appetite: Affected/At Risk (%) (Cohort 3 400 mg QD): 4/21 (19.05%); Dehydration: # Events (Cohort 3 400 mg QD): 2; Dehydration: Affected/At Risk (%) (Cohort 3 400 mg QD): 2/21 (9.52%); Depression: # Events (Cohort 3 400 mg QD): 3; Depression: Affected/At Risk (%) (Cohort 3 400 mg QD): 3/21 (14.29%); Diarrhoea: # Events (Cohort 3 400 mg QD): 11; Diarrhoea: Affected/At Risk (%) (Cohort 3 400 mg QD): 7/21 (33.33%); Dizziness: # Events (Cohort 3 400 mg QD): 2; Dizziness: Affected/At Risk (%) (Cohort 3 400 mg QD): 2/21 (9.52%); Drug eruption: # Events (Cohort 3 400 mg QD): 0; Drug eruption: Affected/At Risk (%) (Cohort 3 400 mg QD): 0/21 (0%); Drug-related AE, No. (%) (Cohort 3 400 mg QD): 14 (67); Drug-related SAE, No. (%) (Cohort 3 400 mg QD): 0; Dry eye: # Events (Cohort 3 400 mg QD): 2; Dry eye: Affected/At Risk (%) (Cohort 3 400 mg QD): 2/21 (9.52%); Dry skin: # Events (Cohort 3 400 mg QD): 1; Dry skin: Affected/At Risk (%) (Cohort 3 400 mg QD): 1/21 (4.76%); Dyspepsia: # Events (Cohort 3 400 mg QD): 1; Dyspepsia: Affected/At Risk (%) (Cohort 3 400 mg QD): 1/21 (4.76%); Dysphagia: # Events (Cohort 3 400 mg QD): 3; Dysphagia: Affected/At Risk (%) (Cohort 3 400 mg QD): 2/21 (9.52%); Dyspnoea exertional: # Events (Cohort 3 400 mg QD): 0; Dyspnoea exertional: Affected/At Risk (%) (Cohort 3 400 mg QD): 0/21 (0%); Dyspnoea: # Events (Cohort 3 400 mg QD): 6; Dyspnoea: Affected/At Risk (%) (Cohort 3 400 mg QD): 6/21 (28.57%); Embolism: # Events (Cohort 3 400 mg QD): 1; Embolism: Affected/At Risk (%) (Cohort 3 400 mg QD): 1/21 (4.76%); Enamel anomaly: # Events (Cohort 3 400 mg QD): 0; Enamel anomaly: Affected/At Risk (%) (Cohort 3 400 mg QD): 0/21 (0%); Epidural lipomatosis: # Events (Cohort 3 400 mg QD): 0; Epidural lipomatosis: Affected/At Risk (%) (Cohort 3 400 mg QD): 0/21 (0%); Epstein-Barr virus infection: # Events (Cohort 3 400 mg QD): 0; Epstein-Barr virus infection: Affected/At Risk (%) (Cohort 3 400 mg QD): 0/21 (0%); Erectile dysfunction: # Events (Cohort 3 400 mg QD): 0; Erectile dysfunction: Affected/At Risk (%) (Cohort 3 400 mg QD): 0/21 (0%); Eye irritation: # Events (Cohort 3 400 mg QD): 0; Eye irritation: Affected/At Risk (%) (Cohort 3 400 mg QD): 0/21 (0%); Eye pain: # Events (Cohort 3 400 mg QD): 0; Eye pain: Affected/At Risk (%) (Cohort 3 400 mg QD): 0/21 (0%); Eye pruritus: # Events (Cohort 3 400 mg QD): 0; Eye pruritus: Affected/At Risk (%) (Cohort 3 400 mg QD): 0/21 (0%); Fall: # Events (Cohort 3 400 mg QD): 1; Fall: Affected/At Risk (%) (Cohort 3 400 mg QD): 1/21 (4.76%); Fatigue: # Events (Cohort 3 400 mg QD): 14; Fatigue: Affected/At Risk (%) (Cohort 3 400 mg QD): 10/21 (47.62%); Flatulence: # Events (Cohort 3 400 mg QD): 1; Flatulence: Affected/At Risk (%) (Cohort 3 400 mg QD): 1/21 (4.76%); Flushing: # Events (Cohort 3 400 mg QD): 0; Flushing: Affected/At Risk (%) (Cohort 3 400 mg QD): 0/21 (0%)
